Experimental data as given in publication PMC11763264, “Antibacterial and Antifungal Activities of Linear and Cyclic Peptides Containing Arginine, Tryptophan, and Diphenylalanine” (Antibiotics, 2025).
Values after ≈ are worked out from the molar mass of the structure shown. Non-standard residues stand in square brackets, D forms with d. Residues, ends and D or L forms follow the SMILES beside them. Dip = N[C@H](C(=O)O)C(c1ccccc1)c1ccccc1

Tests used:
Assay in all cases: microbe, parasite or virus in culture
[1] = system: C. albicans (ATCC 60193); type: cell-based, Candida albicans
Method: (§1) The antifungal activity of all ten synthesized linear and cyclic peptides was evaluated against C. albicans (ATCC 60193), C. parapsilosis (ATCC 22019), and A. fumigatus (AF-293). Fluconazole and amphotericin B were used as positive controls for this study. The MIC was determined at concentrations in wells with no visible fungal growth.
(§2) In this study, C. albicans and C. parapsilosis were cultured on Yeast Peptone Dextrose (YPD) agar containing 1% w/v yeast extract, 2% w/v peptone, 2% w/v D-glucose, and 1.5% agar. A single colony from the agar was selected and cultured in Tryptone soy broth supplemented with 0.1% D-glucose, then incubated for 24 h at 37 °C. The cells were washed twice with PBS by centrifugation at 2000 RPM for 5 min. The pellet was resuspended in 5 mL of PBS, diluted in RPMI 1640 with L-glutamine, supplemented with 2% D-glucose, and the pH adjusted using HEPES buffer. The suspension was then incubated for 50 min at 35 °C to achieve a final cell concentration of 10^6 cells/mL.
(§3) Peptide concentrations of 50, 25, 12.5, 6.25, and 3.1 μg/mL were tested in triplicate and repeated twice. Each well of a 96-well plate was inoculated with the prepared inoculum suspension, which was diluted with RPMI media to a final volume of 200 μL per well. The control well received the same inoculum without any compound. The plates were incubated for 24 h at 37 °C. Fungal and microbial growth were visually observed in the control wells, and the minimum inhibitory concentration (MIC) was determined as the lowest concentration at which no growth was detected in the wells. Amphotericin B was used as a standard antifungal drug.

[2] = system: C. parapsilosis (ATCC 22019); type: cell-based, Candida parapsilosis
Method: as §1, §2, §3

[3] = system: A. fumigatus (Af-293); type: cell-based, Aspergillus fumigatus; conditions: RPMI 1640 with 2% D-glucose, HEPES, 10^6 cells/mL, 24 and 48 h at 35 °C, no visible growth, triplicates, repeated twice
Method: as §1
A. fumigatus (Af-293) was cultured on Sabouraud dextrose agar (SDA) (Lot #3431660, Oxoid) for 48–72 h at 35 °C to obtain fresh and mature colonies which reached the proper sporulation then used to prepare the inoculum. The colonies were covered with Phosphate-Buffered Saline (PBS) containing 0.025% Tween-20, scraped from the plate, and carefully collected into a sterile tube. The suspension was centrifuged at 3000 RPM for 5 min after the separation between conidia and hyphae. The supernatant was discarded, and the pellet was resuspended in 5 mL of PBS.
Peptide concentrations of 50, 25, 12.5, 6.25, and 3.1 μg/mL were tested in triplicate. Each well of a 96-well plate was inoculated with the prepared inoculum suspension, which was diluted with RPMI 1640 medium containing L-glutamine, supplemented with 2% D-glucose, and the pH adjusted using HEPES buffer. The plates were incubated for 50 min at 35 °C to achieve a final cell concentration of 10^6 cells/mL. The control wells contained the same inoculum without any compound. The plates were then incubated for 24 and 48 h at 35 °C. Fungal growth was visualized, and the minimum inhibitory concentration (MIC) was determined as the lowest peptide concentration, where no growth was observed.

[4] = system: MRSA (ATCC BAA-1556); type: cell-based, Methicillin-Resistant Staphylococcus aureus; conditions: ATCC BAA-1556, 24 h
Method: (§4) The antibacterial activity of all ten synthesized linear and cyclic peptides was evaluated against MRSA (ATCC BAA-1556), S. aureus (ATCC 29213), E. faecium (ATCC 700221), S. pneumoniae (ATCC 51938), E. faecalis (ATCC 29212), B. subtilis (ATCC-6633), K. pneumoniae (ATCC BAA-1705), P. aeruginosa (ATCC 27883), and E. coli (ATCC 25922). Meropenem and daptomycin were used as positive controls for this study. Certain peptides are marked as “NT” (not tested) against specific bacterial strains based on initial screening data. […] The MIC was determined by micro-broth dilution protocol, where the minimal concentrations were determined to be in wells with no visible bacterial growth.
(§5) All bacterial experiments were carried out in a laminar flow hood (Labconco, Kansas City, MO, USA). The bacterial strains were cultured following the guidelines set by the Clinical Laboratory Standards Institute (CLSI). Antibacterial assays were performed using a standard microtiter dilution method as described in previous studies. The minimum inhibitory concentration (MIC) refers to the lowest peptide concentration that inhibits bacterial growth in wells with no visible bacterial growth. MIC was determined by micro-broth dilution. Bacteria were cultured overnight in 6 mL of Luria Broth (LB). A stock solution of the peptide was prepared in water and DMSO, and a test compound solution with a concentration of 256 µg/mL was made in LB. Meropenem, with a solubility of 8 mg/mL, was prepared as a stock solution at 4 mg/500 µL. An aliquot of the overnight bacteria culture was diluted in normal saline (NS, 1 mL) until achieving a 0.5 McFarland turbidity (1.5 × 10^8 bacterial cell CFU/mL). A 0.5 McFarland compared solution (60 µL) was added to Mueller Hinton Broth (MH) 8940 µL to generate a 1/150 dilution. A 200 µL test compound solution was added to the first well of a 96-well plate, and the remaining wells (2–12) were filled with 100 µL of MH media using a multi-channel pipette from a sterile reservoir. A concentration of […] of the tested peptides was prepared from a stock solution of the samples for testing in Muller−Hinton broth MH media. Peptides stock solution was dissolved in 5% DMSO in water, and the final concentration of DMSO in the first well of assay plate was 2.5% DMSO/H2O and diluted across the assay plate.
(§6) A 100 µL sample from well 1 was pipetted into well 2, and the solution was mixed thoroughly by pipetting up and down. Next, 100 µL was transferred from well 2 to well 3, followed by thorough mixing. This 2-fold serial dilution process continued through well 11, with no additions made to well 12. The final 100 µL from well 11 was discarded. After completing the serial dilution, each well (1–12) contained 100 µL of solution. The bacterial culture in MH media was vortexed and transferred to a sterile reservoir, from which 100 µL was added to each well using a 12-channel pipette. (Note: The dilutions were further diluted upon adding the bacterial solution; for example, the concentration in well 1 started at […] after the addition of the bacterial culture.) The plates were incubated overnight at 37 °C for 24 h. All experiments were performed in triplicate and repeated twice, with controls consisting of bacteria in MH media and positive controls of daptomycin or meropenem.

[5] = system: S. aureus (ATCC 29213); type: cell-based, Staphylococcus aureus; conditions: ATCC 29213, 24 h
Method: as §4, §5, §6

[6] = system: E. faecium (ATCC 700221); type: cell-based, Enterococcus faecium; conditions: ATCC 700221, 24 h
Method: as §4, §5, §6

[7] = system: S. pneumoniae (ATCC 51938); type: cell-based, Streptococcus pneumoniae; conditions: ATCC 51938, 24 h
Method: as §4, §5, §6

[8] = system: E. faecalis (ATCC 29212); type: cell-based, Enterococcus faecalis; conditions: ATCC 29212, 24 h
Method: as §4, §5, §6

[9] = system: B. subtilis (ATCC-6633); type: cell-based, Bacillus subtilis; conditions: ATCC-6633, 24 h
Method: as §4, §5, §6

[10] = system: K. pneumoniae (ATCC BAA-1705); type: cell-based, Klebsiella pneumoniae; conditions: ATCC BAA-1705, 24 h
Method: as §4, §5, §6

[11] = system: P. aeruginosa (ATCC 27883); type: cell-based, Pseudomonas aeruginosa; conditions: ATCC 27883, 24 h
Method: as §4, §5, §6

[12] = system: E. coli (ATCC 25922); type: cell-based, Escherichia coli; conditions: ATCC 25922, 24 h
Method: as §4, §5, §6

[13] = Candida albicans, ATCC60193, RPMI 1640 with 2% D-glucose, HEPES, 10^6 cells/mL, 24 h at 37 °C, no visible growth, triplicates, repeated twice
[14] = Lodderomyces parapsilosis, ATCC22019, RPMI 1640 with 2% D-glucose, HEPES, 10^6 cells/mL, 24 h at 37 °C, no visible growth, triplicates, repeated twice

MIC [1, 13] [µM]	MIC [2, 14] [µM]	MIC [4] [µM]	MIC [5] [µM]	MIC [6] [µM]	MIC [7] [µM]	MIC [8] [µM]	MIC [9] [µM]	MIC [10] [µM]	MIC [11] [µM]	MIC [12] [µM]	MIC ([1]; ATCC 60193, 24 h) [µM]	MIC ([2]; ATCC 22019, 24 h) [µM]	SMILES	MIC ([3]; Aspergillus fumigatus) [µM]	MIC [3] [µM]
–	–	1.2 (≈ 1.94 µg/mL)	0.62 (≈ 1 µg/mL)	1.2 (≈ 1.94 µg/mL)	4.9 (≈ 7.94 µg/mL)	9.87 (≈ 16 µg/mL)	0.3 (≈ 0.486 µg/mL)	–	–	–	–	–	CCCCCCCCCC(=O)N[C@@H](Cc1c[nH]c2ccccc12)C(=O)N[C@H](CC(N)=O)C(=O)N[C@@H](CC(=O)O)C(=O)N[C@@H]1C(=O)NCC(=O)N[C@@H](CCCN)C(=O)N[C@@H](CC(=O)O)C(=O)N[C@H](C)C(=O)N[C@@H](CC(=O)O)C(=O)NCC(=O)N[C@H](CO)C(=O)N[C@@H]([C@H](C)CC(=O)O)C(=O)N[C@@H](CC(=O)c2ccccc2N)C(=O)O[C@@H]1C [Daptomycin, reference compound]	–	–
–	–	3.1 (≈ 5.54 µg/mL)	–	–	–	–	–	12.5 (≈ 22.3 µg/mL)	25 (≈ 44.7 µg/mL)	12.5 (≈ 22.3 µg/mL)	7.0 (≈ 12.5 µg/mL)	7.0 (≈ 12.5 µg/mL)	N=C(N)NCCC[C@@H]1NC(=O)[C@H](Cc2c[nH]c3ccccc23)NC(=O)[C@H](CCCNC(=N)N)NC(=O)[C@H](Cc2c[nH]c3ccccc23)NC(=O)[C@H](CCCNC(=N)N)NC(=O)[C@H](C(c2ccccc2)c2ccccc2)NC(=O)[C@H](CCCNC(=N)N)NC(=O)[C@H](C(c2ccccc2)c2ccccc2)NC(=O)[C@H](CCCNC(=N)N)NC(=O)[C@H](Cc2c[nH]c3ccccc23)NC1=O [[(DipR)2(WR)3]] (cyclo([Dip]R[Dip]RWRWRWR))	–	1.7 (≈ 3.04 µg/mL)

The remaining lines, values behind:

SMILES	MIC [1, 13] [µM]	MIC [2, 14] [µM]	MIC [4] [µM]	MIC [5] [µM]	MIC [6] [µM]	MIC [7] [µM]	MIC [8] [µM]	MIC [9] [µM]	MIC [10] [µM]	MIC [11] [µM]	MIC [12] [µM]	MIC ([1]; ATCC 60193, 24 h) [µM]	MIC ([2]; ATCC 22019, 24 h) [µM]	MIC ([3]; Aspergillus fumigatus) [µM]	MIC [3] [µM]
C[C@@H]1[C@H](O)[C@@H](C)/C=C/C=C/C=C/C=C/C=C/C=C/C=C/[C@H](O[C@@H]2O[C@H](C)[C@@H](O)[C@H](N)[C@@H]2O)C[C@@H]2O[C@](O)(C[C@@H](O)C[C@@H](O)[C@H](O)CC[C@@H](O)C[C@@H](O)CC(=O)O[C@H]1C)C[C@H](O)[C@H]2C(=O)O [Amphotericin B, reference compound]	0.42 (≈ 0.388 µg/mL)	0.42 (≈ 0.388 µg/mL)	–	–	–	–	–	–	–	–	–	–	–	0.84 (≈ 0.776 µg/mL)	–
OC(Cn1cncn1)(Cn1cncn1)c1ccc(F)cc1F [Fluconazole, reference compound]	4.9 (≈ 1.5 µg/mL)	3.3 (≈ 1.01 µg/mL)	–	–	–	–	–	–	–	–	–	–	–	> 209	>209
N=C(N)NCCC[C@@H]1NC(=O)[C@H](Cc2c[nH]c3ccccc23)NC(=O)[C@H](CCCNC(=N)N)NC(=O)[C@H](C(c2ccccc2)c2ccccc2)NC(=O)[C@H](CCCNC(=N)N)NC(=O)[C@H](C(c2ccccc2)c2ccccc2)NC(=O)[C@H](CCCNC(=N)N)NC(=O)[C@H](C(c2ccccc2)c2ccccc2)NC(=O)[C@H](CCCNC(=N)N)NC(=O)[C@H](Cc2c[nH]c3ccccc23)NC1=O [[(DipR)3(WR)2]] (cyclo([Dip]R[Dip]R[Dip]RWRWR))	–	–	3.1 (≈ 5.65 µg/mL)	–	–	–	–	–	12.5 (≈ 22.8 µg/mL)	25 (≈ 45.6 µg/mL)	12.5 (≈ 22.8 µg/mL)	6.8 (≈ 12.4 µg/mL)	6.8 (≈ 12.4 µg/mL)	–	1.7 (≈ 3.1 µg/mL)
N=C(N)NCCC[C@@H]1NC(=O)[C@H](Cc2c[nH]c3ccccc23)NC(=O)[C@H](CCCNC(=N)N)NC(=O)[C@H](C(c2ccccc2)c2ccccc2)NC(=O)[C@H](CCCNC(=N)N)NC(=O)[C@H](C(c2ccccc2)c2ccccc2)NC(=O)[C@H](CCCNC(=N)N)NC(=O)[C@H](C(c2ccccc2)c2ccccc2)NC(=O)[C@H](CCCNC(=N)N)NC(=O)[C@H](C(c2ccccc2)c2ccccc2)NC1=O [[(DipR)4(WR)]] (cyclo([Dip]R[Dip]R[Dip]R[Dip]RWR))	–	–	3.1 (≈ 5.77 µg/mL)	–	–	–	–	–	25 (≈ 46.5 µg/mL)	25 (≈ 46.5 µg/mL)	12.5 (≈ 23.3 µg/mL)	6.7 (≈ 12.5 µg/mL)	6.7 (≈ 12.5 µg/mL)	–	1.7 (≈ 3.16 µg/mL)
N=C(N)NCCC[C@@H]1NC(=O)[C@H](Cc2c[nH]c3ccccc23)NC(=O)[C@H](CCCNC(=N)N)NC(=O)[C@H](Cc2c[nH]c3ccccc23)NC(=O)[C@H](CCCNC(=N)N)NC(=O)[C@H](C(c2ccccc2)c2ccccc2)NC(=O)[C@H](CCCNC(=N)N)NC(=O)[C@H](Cc2c[nH]c3ccccc23)NC(=O)[C@H](CCCNC(=N)N)NC(=O)[C@H](Cc2c[nH]c3ccccc23)NC1=O [[(DipR)(WR)4]] (cyclo([Dip]RWRWRWRWR))	–	–	3.1 (≈ 5.42 µg/mL)	–	–	–	–	–	12.5 (≈ 21.9 µg/mL)	25 (≈ 43.7 µg/mL)	12.5 (≈ 21.9 µg/mL)	14.3 (≈ 25 µg/mL)	7.1 (≈ 12.4 µg/mL)	–	1.8 (≈ 3.15 µg/mL)
